According to patent publication EP0454444A1, “Glutarimide derivatives and herbicides” (NISSAN CHEMICAL INDUSTRIES LTD., priority 1990, dated 1991):

How the values were obtained:
Assay in all cases: Herbicidal effect test by soil treatment
Format in all cases: in vivo
rice (Oryza sativa) = settings: crop plant, three weeks after spraying
Text: (§1) In a plastic box of 15 cm length, 22 cm width and 6 cm depth, there was placed a sterilized dilvial soil, and seeds of barnyardgrass (Echinochloa crusgalli), large crabgrass (Digitaria adscendens), annual sedge (Cyperus microiria), black nightshade (Solanum nigrum L.), hairly galinosoga (Galinsoga ciliat), rorippa ssp. (Rorippa atrovirens), rice (Oryza sativa), corn (Zea mays), wheat (Triticum aestivum), soybean (Glysine max) and cotton (Gossypium herbaceum) were sown mixedly. After covering soil to about 1 cm over the seeds, herbicides were sprayed evenly on the soil surface to predetermined proportions of the active ingredient In spraying, the wettable powder, emulsifiable concentrate, dry flowable or flowable in the above formulation examples were diluted with water and sprayed over the entire surface by means of a small sprayer. Three weeks after spraying, the herbicidal effect on crop plants including rice, corn, wheat, soybean, cotton and various kinds of weeds were examined according to the judgement criteria shown below. Judgement criteria
(§2) The above growth control rates are determined by measuring the top fresh weights of the treated plants and those of the non-treated plants, and culculated from the following formula: [formula]

[1] = system: annual sedge (Cyperus microiria); settings: three weeks after spraying
Text: as §1, §2

[2] = system: black nightshade (Solanum nigrum L.); settings: three weeks after spraying
Text: as §1, §2

[3] = system: large crabgrass (Digitaria adscendens); settings: three weeks after spraying
Text: as §1, §2

[4] = system: barnyardgrass (Echinochloa crusgalli); settings: three weeks after spraying
Text: as §1, §2

[5] = system: wheat (Triticum aestivum); settings: crop plant, three weeks after spraying
Text: as §1, §2

soybean (Glysine max) = settings: crop plant, three weeks after spraying
Text: as §1, §2

[6] = system: rorippa ssp. (Rorippa atrovirens); settings: three weeks after spraying
Text: as §1, §2

corn (Zea mays) = settings: crop plant, three weeks after spraying
Text: as §1, §2

[7] = system: cotton (Gossypium herbaceum); settings: crop plant, three weeks after spraying
Text: as §1, §2

[8] = system: hairly galinosoga (Galinsoga ciliat); settings: three weeks after spraying
Text: as §1, §2

CCOC(=O)c1cc(N2C(=O)CCC(C)C2=O)c(F)cc1Cl (centres unmarked) [1-12]
herbicidal effect, R (Oryza sativa) (rice (Oryza sativa); application amount 6.3 g/a): 2 (Growth control rates of 20 to 40%)
herbicidal effect, K (Cyperus microiria) ([1]; application amount 6.3 g/a): 5 (Growth control,rates of more than 90% (almost completely withered))
herbicidal effect, H (Solanum nigrum L.) ([2]; application amount 6.3 g/a): 2 (Growth control rates of 20 to 40%)
herbicidal effect, M (Digitaria adscendens) ([3]; application amount 6.3 g/a): 5 (Growth control,rates of more than 90% (almost completely withered))
herbicidal effect, N (Echinochloa crusgalli) ([4]; application amount 6.3 g/a): 2 (Growth control rates of 20 to 40%)
herbicidal effect, W (Triticum vulgare) ([5]; application amount 6.3 g/a): 1 (Growth control rates of 5 to 20%)
herbicidal effect, S (Glysine max) (soybean (Glysine max); application amount 6.3 g/a): 0 (Growth control rates of less than 5% (substantially no effect))
herbicidal effect, I (Rorippa indica) ([6]; application amount 6.3 g/a): 5 (Growth control,rates of more than 90% (almost completely withered))
herbicidal effect, T (Zea mays) (corn (Zea mays); application amount 6.3 g/a): 0 (Growth control rates of less than 5% (substantially no effect))
herbicidal effect, C (Gossypium herbaceum) ([7]; application amount 6.3 g/a): 0 (Growth control rates of less than 5% (substantially no effect))
herbicidal effect, D (Galinsoga ciliat) ([8]; application amount 6.3 g/a): 4 (Growth control rates of 70 to 90%)

O=C1COc2cc(F)c(N3C(=O)CC(C(F)(F)F)CC3=O)cc2N1CC1CCCCC1 [1-28]
herbicidal effect, R (Oryza sativa) (rice (Oryza sativa); application amount 1.6 g/a): 0 (Growth control rates of less than 5% (substantially no effect))
herbicidal effect, K (Cyperus microiria) ([1]; application amount 1.6 g/a): 5 (Growth control,rates of more than 90% (almost completely withered))
herbicidal effect, H (Solanum nigrum L.) ([2]; application amount 1.6 g/a): 5 (Growth control,rates of more than 90% (almost completely withered))
herbicidal effect, M (Digitaria adscendens) ([3]; application amount 1.6 g/a): 5 (Growth control,rates of more than 90% (almost completely withered))
herbicidal effect, N (Echinochloa crusgalli) ([4]; application amount 1.6 g/a): 5 (Growth control,rates of more than 90% (almost completely withered))
herbicidal effect, W (Triticum vulgare) ([5]; application amount 1.6 g/a): 2 (Growth control rates of 20 to 40%)
herbicidal effect, S (Glysine max) (soybean (Glysine max); application amount 1.6 g/a): 0 (Growth control rates of less than 5% (substantially no effect))
herbicidal effect, I (Rorippa indica) ([6]; application amount 1.6 g/a): 5 (Growth control,rates of more than 90% (almost completely withered))
herbicidal effect, T (Zea mays) (corn (Zea mays); application amount 1.6 g/a): 0 (Growth control rates of less than 5% (substantially no effect))
herbicidal effect, C (Gossypium herbaceum) ([7]; application amount 1.6 g/a): 0 (Growth control rates of less than 5% (substantially no effect))
herbicidal effect, D (Galinsoga ciliat) ([8]; application amount 1.6 g/a): 5 (Growth control,rates of more than 90% (almost completely withered))

C#CCN1C(=O)COc2cc(F)c(N3C(=O)CC(C(F)(F)F)CC3=O)cc21 [1-26]
herbicidal effect, R (Oryza sativa) (rice (Oryza sativa); application amount 0.4 g/a): 5 (Growth control,rates of more than 90% (almost completely withered))
herbicidal effect, R (Oryza sativa) (rice (Oryza sativa); application amount 0.8 g/a): 5 (Growth control,rates of more than 90% (almost completely withered))
herbicidal effect, R (Oryza sativa) (rice (Oryza sativa); application amount 1.6 g/a): 5 (Growth control,rates of more than 90% (almost completely withered))
herbicidal effect, K (Cyperus microiria) ([1]; application amount 0.4 g/a): 5 (Growth control,rates of more than 90% (almost completely withered))
herbicidal effect, K (Cyperus microiria) ([1]; application amount 0.8 g/a): 5 (Growth control,rates of more than 90% (almost completely withered))
herbicidal effect, K (Cyperus microiria) ([1]; application amount 1.6 g/a): 5 (Growth control,rates of more than 90% (almost completely withered))
herbicidal effect, H (Solanum nigrum L.) ([2]; application amount 0.4 g/a): 5 (Growth control,rates of more than 90% (almost completely withered))
herbicidal effect, H (Solanum nigrum L.) ([2]; application amount 0.8 g/a): 5 (Growth control,rates of more than 90% (almost completely withered))
herbicidal effect, H (Solanum nigrum L.) ([2]; application amount 1.6 g/a): 5 (Growth control,rates of more than 90% (almost completely withered))
herbicidal effect, M (Digitaria adscendens) ([3]; application amount 0.4 g/a): 5 (Growth control,rates of more than 90% (almost completely withered))
herbicidal effect, M (Digitaria adscendens) ([3]; application amount 0.8 g/a): 5 (Growth control,rates of more than 90% (almost completely withered))
herbicidal effect, M (Digitaria adscendens) ([3]; application amount 1.6 g/a): 5 (Growth control,rates of more than 90% (almost completely withered))
herbicidal effect, N (Echinochloa crusgalli) ([4]; application amount 0.4 g/a): 5 (Growth control,rates of more than 90% (almost completely withered))
herbicidal effect, N (Echinochloa crusgalli) ([4]; application amount 0.8 g/a): 5 (Growth control,rates of more than 90% (almost completely withered))
herbicidal effect, N (Echinochloa crusgalli) ([4]; application amount 1.6 g/a): 5 (Growth control,rates of more than 90% (almost completely withered))
herbicidal effect, W (Triticum vulgare) ([5]; application amount 0.4 g/a): 4 (Growth control rates of 70 to 90%)
herbicidal effect, W (Triticum vulgare) ([5]; application amount 0.8 g/a): 5 (Growth control,rates of more than 90% (almost completely withered))
herbicidal effect, W (Triticum vulgare) ([5]; application amount 1.6 g/a): 5 (Growth control,rates of more than 90% (almost completely withered))
herbicidal effect, S (Glysine max) (soybean (Glysine max); application amount 0.4 g/a): 0 (Growth control rates of less than 5% (substantially no effect))
herbicidal effect, S (Glysine max) (soybean (Glysine max); application amount 0.8 g/a): 2 (Growth control rates of 20 to 40%)
herbicidal effect, S (Glysine max) (soybean (Glysine max); application amount 1.6 g/a): 4 (Growth control rates of 70 to 90%)
herbicidal effect, I (Rorippa indica) ([6]; application amount 0.4 g/a): 5 (Growth control,rates of more than 90% (almost completely withered))
herbicidal effect, I (Rorippa indica) ([6]; application amount 0.8 g/a): 5 (Growth control,rates of more than 90% (almost completely withered))
herbicidal effect, I (Rorippa indica) ([6]; application amount 1.6 g/a): 5 (Growth control,rates of more than 90% (almost completely withered))
herbicidal effect, T (Zea mays) (corn (Zea mays); application amount 0.4 g/a): 4 (Growth control rates of 70 to 90%)
herbicidal effect, T (Zea mays) (corn (Zea mays); application amount 0.8 g/a): 5 (Growth control,rates of more than 90% (almost completely withered))
herbicidal effect, T (Zea mays) (corn (Zea mays); application amount 1.6 g/a): 5 (Growth control,rates of more than 90% (almost completely withered))
herbicidal effect, C (Gossypium herbaceum) ([7]; application amount 0.4 g/a): 5 (Growth control,rates of more than 90% (almost completely withered))
herbicidal effect, C (Gossypium herbaceum) ([7]; application amount 0.8 g/a): 5 (Growth control,rates of more than 90% (almost completely withered))
herbicidal effect, C (Gossypium herbaceum) ([7]; application amount 1.6 g/a): 5 (Growth control,rates of more than 90% (almost completely withered))
herbicidal effect, D (Galinsoga ciliat) ([8]; application amount 0.4 g/a): 5 (Growth control,rates of more than 90% (almost completely withered))
herbicidal effect, D (Galinsoga ciliat) ([8]; application amount 0.8 g/a): 5 (Growth control,rates of more than 90% (almost completely withered))
herbicidal effect, D (Galinsoga ciliat) ([8]; application amount 1.6 g/a): 5 (Growth control,rates of more than 90% (almost completely withered))

CC1CC(=O)N(c2cc3c(cc2F)OCC(=O)N3)C(=O)C1 [1-22]
herbicidal effect, R (Oryza sativa) (rice (Oryza sativa); application amount 1.6 g/a): 0 (Growth control rates of less than 5% (substantially no effect))
herbicidal effect, K (Cyperus microiria) ([1]; application amount 1.6 g/a): 5 (Growth control,rates of more than 90% (almost completely withered))
herbicidal effect, H (Solanum nigrum L.) ([2]; application amount 1.6 g/a): 5 (Growth control,rates of more than 90% (almost completely withered))
herbicidal effect, M (Digitaria adscendens) ([3]; application amount 1.6 g/a): 5 (Growth control,rates of more than 90% (almost completely withered))
herbicidal effect, N (Echinochloa crusgalli) ([4]; application amount 1.6 g/a): 5 (Growth control,rates of more than 90% (almost completely withered))
herbicidal effect, W (Triticum vulgare) ([5]; application amount 1.6 g/a): 0 (Growth control rates of less than 5% (substantially no effect))
herbicidal effect, S (Glysine max) (soybean (Glysine max); application amount 1.6 g/a): 0 (Growth control rates of less than 5% (substantially no effect))
herbicidal effect, I (Rorippa indica) ([6]; application amount 1.6 g/a): 5 (Growth control,rates of more than 90% (almost completely withered))
herbicidal effect, T (Zea mays) (corn (Zea mays); application amount 1.6 g/a): 0 (Growth control rates of less than 5% (substantially no effect))
herbicidal effect, C (Gossypium herbaceum) ([7]; application amount 1.6 g/a): 0 (Growth control rates of less than 5% (substantially no effect))
herbicidal effect, D (Galinsoga ciliat) ([8]; application amount 1.6 g/a): 5 (Growth control,rates of more than 90% (almost completely withered))

CCOC(=O)Nc1cc(N2C(=O)CC(C(F)(F)F)CC2=O)c(F)cc1Cl [1-35]
herbicidal effect, R (Oryza sativa) (rice (Oryza sativa); application amount 1.6 g/a): 0 (Growth control rates of less than 5% (substantially no effect))
herbicidal effect, K (Cyperus microiria) ([1]; application amount 1.6 g/a): 5 (Growth control,rates of more than 90% (almost completely withered))
herbicidal effect, H (Solanum nigrum L.) ([2]; application amount 1.6 g/a): 5 (Growth control,rates of more than 90% (almost completely withered))
herbicidal effect, M (Digitaria adscendens) ([3]; application amount 1.6 g/a): 5 (Growth control,rates of more than 90% (almost completely withered))
herbicidal effect, N (Echinochloa crusgalli) ([4]; application amount 1.6 g/a): 4 (Growth control rates of 70 to 90%)
herbicidal effect, W (Triticum vulgare) ([5]; application amount 1.6 g/a): 1 (Growth control rates of 5 to 20%)
herbicidal effect, S (Glysine max) (soybean (Glysine max); application amount 1.6 g/a): 0 (Growth control rates of less than 5% (substantially no effect))
herbicidal effect, I (Rorippa indica) ([6]; application amount 1.6 g/a): 5 (Growth control,rates of more than 90% (almost completely withered))
herbicidal effect, T (Zea mays) (corn (Zea mays); application amount 1.6 g/a): 0 (Growth control rates of less than 5% (substantially no effect))
herbicidal effect, C (Gossypium herbaceum) ([7]; application amount 1.6 g/a): 0 (Growth control rates of less than 5% (substantially no effect))
herbicidal effect, D (Galinsoga ciliat) ([8]; application amount 1.6 g/a): 5 (Growth control,rates of more than 90% (almost completely withered))
